In article PMC2764797 (Neurochemistry international, 2009):

Biological target: GAT1 (Homo sapiens, UniProt P30531)
Type: cell-based

Sequence of GAT1 (P30531 whole entry): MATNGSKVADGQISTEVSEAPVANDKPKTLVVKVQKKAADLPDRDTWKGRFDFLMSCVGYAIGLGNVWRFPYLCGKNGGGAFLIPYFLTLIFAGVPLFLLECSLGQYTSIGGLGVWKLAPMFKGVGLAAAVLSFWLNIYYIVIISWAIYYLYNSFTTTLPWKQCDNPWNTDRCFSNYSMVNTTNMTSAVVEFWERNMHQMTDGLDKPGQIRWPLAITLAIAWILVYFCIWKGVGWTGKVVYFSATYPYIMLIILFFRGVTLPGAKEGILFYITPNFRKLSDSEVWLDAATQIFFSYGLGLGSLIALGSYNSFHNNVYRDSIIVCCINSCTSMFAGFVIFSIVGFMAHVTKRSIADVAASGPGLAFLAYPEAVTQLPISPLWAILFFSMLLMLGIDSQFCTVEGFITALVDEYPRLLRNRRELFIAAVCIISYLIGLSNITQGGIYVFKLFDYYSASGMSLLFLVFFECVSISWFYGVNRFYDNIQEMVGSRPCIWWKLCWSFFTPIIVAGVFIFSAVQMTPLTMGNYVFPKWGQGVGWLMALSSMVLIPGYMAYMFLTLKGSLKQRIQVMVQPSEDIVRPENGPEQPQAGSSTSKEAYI

Compound: O=C(O)C1=CCCN(CCON=C(c2ccccc2)c2ccccc2)C1 [NO-711, 1-[2-[[(diphenylmethylene)imino]oxy]ethyl]-1,2,5,6-tetrahydro-3-pyridinecarboxylic acid]
- Ki: 78 ± 12 nM
